From ChEMBL document CHEMBL1128151, “Synthesis and bioactivities of heterocyclic lipids as PAF antagonists. 2” (Bioorg Med Chem Lett, 1995) come the findings set out here.

Assay [1] deals with Cavia porcellus. Nature of the assay: In vivo PAF-induced bronchoconstriction in guinea pigs at a dose of 0.01 mg/kg. The class given is functional.
For assay [2], the system named is Cavia porcellus. Put plainly: In vivo inhibitory activity against platelet aggregation in guinea pigs. It is filed as functional, organism-based.
Assay [3] relates to Mus musculus. Nature of the assay: Survival ratio of ICR mice by the administration (0.3 mg/kg) along with endotoxin (55mg/Kg, ip) after 18 h. The class given is functional.
Assay [4] deals with Mus musculus. Put plainly: Survival ratio of ICR mice by the administration (0.3 mg/kg) along with endotoxin (55mg/Kg, ip) after 1 hr. The class given is functional.
In assay [5] the test system is Mus musculus. Put plainly: Survival ratio of ICR mice by the administration (0.3 mg/kg) along with endotoxin (55mg/Kg, ip) after 42h. It is filed as functional.
Assay [6] has as its system Mus musculus. Put plainly: Survival ratio of ICR mice by the administration (0.3 mg/kg) along with endotoxin (55mg/Kg, ip) after 66h. The class given is functional.
The test system of assay [7] is Mus musculus. Put plainly: Survival ratio of ICR mice by the administration (0.3 mg/kg) along with endotoxin (55mg/Kg, ip) after 24 hr. It is filed as functional.
Assay [8] has as its system Mus musculus. Nature of the assay: Survival ratio of ICR mice by the administration (0.3 mg/kg) along with endotoxin (55mg/Kg, ip) after 2 hr. It is filed as functional.
Assay [9] relates to Mus musculus. Nature of the assay: Survival ratio of ICR mice by the administration (0.3 mg/kg) along with endotoxin (55mg/Kg, ip) after 48 hr. The class given is functional.
For the next assay, the system named is Rattus norvegicus. Put plainly: In vivo inhibitory activity against PAF-induced hypertension in SD rats by ip administration. It is filed as functional.
The test system of assay [10] is Cavia porcellus. Nature of the assay: In vivo inhibitory activity against PAF-induced bronchoconstriction in guinea pigs at a dose of 0.01 mg/kg. The class given is functional.
In assay [11] the test system is Mus musculus. Put plainly: In vivo inhibitory activity (1 mg/kg) against endotoxin-induced hemoconcentration in ICR mice with endotoxin concentration of 55 mg/kg. It is filed as functional.
The nature of assay [12]: In vitro inhibitory activity against PAF-induced aggregation of rabbit platelets.

As usually defined, the IC50 is the point on the concentration scale where inhibition reaches its midpoint. High values mean a need for much substance, low ones inhibition by little substance. In general, ED50 refers to the midpoint of the dose-response relation. Lower therefore signals greater potency. What is called inhibition in vivo is the change of the read-out against control, counted positive when it falls. Low readings indicate a weak effect, high ones a strong effect. As for `CCCCCCCCCCCCCCCCCCNC(=O)OC[C@H]1C[C@H](COC(=O)N(Cc2cccc[n+]2CC)C(C)=O)C1.[I-]`, in the assay with Cavia porcellus [1], the Absolute worked out at 12%. Also, inhibition in the assay with Cavia porcellus [2] was half-maximal at 56 nM (IC50). The Survival ratio in the assay with Mus musculus [3] stood at 80; with Mus musculus [4], 100; in the assay with Mus musculus [5], 40; in the assay with Mus musculus [6], 27; in the assay with Mus musculus [7], 73; in the assay with Mus musculus [8], 100. Besides, in the assay on Mus musculus [9], the Survival ratio amounted to 33. In the assay with Rattus norvegicus, this compound gave an ED50 of 0.58 mg/kg. This compound gave an inhibition in vivo at 0.01 mg/kg with Cavia porcellus [10] of 87%.
In the assay with Cavia porcellus [1], `CCCCCCCCCCCCCCCCCCNC(=O)OCC(COC(=O)N(Cc1cccc[n+]1CC)C(C)=O)OC.[Cl-]` (stereo unspecified) [CV-6209] returned an Absolute of 12%. Moreover, the Change with Mus musculus [11] turned out to be 48%. The compound also gave an ED50 in the assay with Rattus norvegicus of 0.35 mg/kg. This compound also had an inhibition in vivo at 0.01 mg/kg with Cavia porcellus [10] of 87%.
In the assay with Mus musculus [11], `CCCCCCCCCCCCCC(=O)OC(CCCCCCCCCCC)CC(=O)OC1C(NC(=O)CC(CCCCCCCCCCC)OC(=O)CCCCCCCCCCC)C(OC2CC(OC(=O)CC(O)CCCCCCCCCCC)C(NC(=O)CC(O)CCCCCCCCCCC)C(O)O2)OC(CO)C1OP(=O)(O)O.CCCCCCCCCCCCCCCCNC(=O)OC[C@@H]1C[C@@H](COC(=O)N(Cc2cccc[n+]2CC)C(C)=O)S1.[Cl-]` (stereo unspecified) displayed a Change of 53% and a Change of hemoconcentration of 12.7.
In the assay on Mus musculus [11], `CCCCCCCCCCCCCC(=O)OC(CCCCCCCCCCC)CC(=O)OC1C(NC(=O)CC(CCCCCCCCCCC)OC(=O)CCCCCCCCCCC)C(OC2CC(OC(=O)CC(O)CCCCCCCCCCC)C(NC(=O)CC(O)CCCCCCCCCCC)C(O)O2)OC(CO)C1OP(=O)(O)O.CCCCCCCCCCCCCCCCCCNC(=O)OC[C@@H]1C[C@@H](COC(=O)N(Cc2cccc[n+]2CC)C(C)=O)N1C(C)=O.[Cl-]` (stereo unspecified) displayed a Change of 55% and a Change of hemoconcentration of 13.1.
`CCCCCCCCCCCCCCCCCCNC(=O)OC[C@H]1C[C@H](COC(=O)N(Cc2cccc[n+]2CC)C(C)=O)N1C(C)=O.[Cl-]` had an Absolute in the assay on Cavia porcellus [1] of 5%. For the same compound, the IC50 in the assay with Cavia porcellus [2] turned out to be 29 nM. Further, the Survival ratio in the assay with Mus musculus [3] turned out to be 73; in the assay with Mus musculus [4], 100; with Mus musculus [5], 53; in the assay on Mus musculus [6], 53; in the assay with Mus musculus [7] it was 73; in the assay on Mus musculus [8], 100. Moreover, in the assay with Mus musculus [9], the Survival ratio worked out at 53. In the assay with Rattus norvegicus, this compound gave an ED50 of 0.33 mg/kg. Besides, the inhibition in vivo at 0.01 mg/kg with Cavia porcellus [10] was 95%.
In the assay on Cavia porcellus [1], `CCCCCCCCCCCCCCCCCCNC(=O)OC[C@H]1C[C@H](COC(=O)N(Cc2cccc[n+]2CC)C(C)=O)O1.[I-]` displayed an Absolute of 7%. In the assay on Rattus norvegicus, this compound registered an ED50 of 0.28 mg/kg. This compound also returned an inhibition in vivo at 0.01 mg/kg in the assay on Cavia porcellus [10] of 92%.
Take `CCCCCCCCCCCCCCCCNC(=O)OC[C@@H]1C[C@@H](COC(=O)N(Cc2cccc[n+]2CC)C(C)=O)S1.[Cl-]`: the Absolute in the assay with Cavia porcellus [1] was 7%. This compound yielded a half-maximal inhibitory concentration (IC50) with Cavia porcellus [2] of 21 nM. The Survival ratio in the assay on Mus musculus [3] turned out to be 80; with Mus musculus [4], 100; in the assay on Mus musculus [5] it was 60; in the assay with Mus musculus [6] it was 60; with Mus musculus [7] it was 73; with Mus musculus [8], 100. In the assay on Mus musculus [9], the Survival ratio stood at 60. In addition, in the assay on Rattus norvegicus, the 50% effect level (ED50) was put at a dose of 0.16 mg/kg. In the assay on Cavia porcellus [10], this compound showed an inhibition in vivo at 0.01 mg/kg of 92%.
On to `CCCCCCCCCCCCCC(=O)OC(CCCCCCCCCCC)CC(=O)OC1C(NC(=O)CC(CCCCCCCCCCC)OC(=O)CCCCCCCCCCC)C(OC2CC(OC(=O)CC(O)CCCCCCCCCCC)C(NC(=O)CC(O)CCCCCCCCCCC)C(O)O2)OC(CO)C1OP(=O)(O)O` (stereo unspecified), for which, in the assay with Mus musculus [11], the Change is 100% and the Change of hemoconcentration is given as 24.
In the assay with Mus musculus [11], `CCCCCCCCCCCCCC(=O)OC(CCCCCCCCCCC)CC(=O)OC1C(NC(=O)CC(CCCCCCCCCCC)OC(=O)CCCCCCCCCCC)C(OC2CC(OC(=O)CC(O)CCCCCCCCCCC)C(NC(=O)CC(O)CCCCCCCCCCC)C(O)O2)OC(CO)C1OP(=O)(O)O.CCCCCCCCCCCCCCCCCCNC(=O)OC[C@H]1C[C@H](COC(=O)N(Cc2cccc[n+]2CC)C(C)=O)O1.[I-]` (stereo unspecified) registered a Change of 53% and a Change of hemoconcentration of 12.7.
In turn, `C[C@@H]1C(=O)O[C@H]2C(O)[C@@]34[C@H]5C[C@@H](C(C)(C)C)[C@]36[C@@H](OC(=O)[C@@H]6O)O[C@@]4(C(=O)O5)[C@@]12O` (single isomer, unassigned) [GINKOLIDE B] came in with an IC50 in assay [12] of 418 nM.
On to `CCCCCCCCCCCCCC(=O)OC(CCCCCCCCCCC)CC(=O)O[C@@H]1[C@@H](NC(=O)CC(CCCCCCCCCCC)OC(=O)CCCCCCCCCCC)[C@H](O[C@@H]2C[C@H](OC(=O)CC(O)CCCCCCCCCCC)[C@@H](NC(=O)CC(O)CCCCCCCCCCC)[C@@H](O)O2)O[C@H](CO)[C@H]1OP(=O)(O)O.CCCCCCCCCCCCCCCCCCNC(=O)OC[C@H]1C[C@H](COC(=O)N(Cc2cccc[n+]2CC)C(C)=O)C1.[I-]` (stereo partly specified), for which, in the assay with Mus musculus [11], the Change was 25% and the Change of hemoconcentration is 5.9.
